Literature values, collected in patent publication US20230143309A1, “PYRROLOBENZODIAZEPINE ANTIBODY CONJUGATES” (priority 2016, published 2023).

Columns and labels:
human tumour cell lines = conditions: for activity against a range of human tumour cell lines: quoted from UCL REF 2014 impact study
[1] = tested on: human tumour xenograft models; conditions: quoted from UCL REF 2014 impact study

## C=C1C[C@H]2C=Nc3cc(OCCCOc4cc5c(cc4OC)C(=O)N4CC(=C)C[C@H]4C=N5)c(OC)cc3C(=O)N2C1 [SG2000]
Human tumour cell lines; Hartley et al 2012
  cytotoxicity relative to SG2057 (less cytotoxic): at least 10 times

## C=C1C[C@H]2C=Nc3cc(OCCCCCOc4cc5c(cc4OC)C(=O)N4CC(=C)C[C@H]4C=N5)c(OC)cc3C(=O)N2C1 [SG2057]
Human tumour cell lines
  activity against a range of human tumour cell lines: picomolar/sub-picomolar activity
[1]
  activity in human tumour xenograft models: curative activity

## COc1ccc(C2=CN3C(=O)c4cc(OC)c(OCCCOc5cc6c(cc5OC)C(=O)N5C=C(c7ccc(OC)cc7)C[C@H]5C=N6)cc4N=C[C@@H]3C2)cc1 [SG2202]
Human tumour cell lines
  activity against a range of human tumour cell lines: picomolar/sub-picomolar activity
[1]
  activity in human tumour xenograft models: curative activity
